Laboratory results as given in patent publication US11098041B2 (Merck Patent GmbH, priority 2014, dated 2021).

What was measured:
[1] = biological target: LCK (Homo sapiens (Human), UniProt P06239); assay: Assay E: LCK biochemical assay (HotSpot Kinase Assay); settings: read-out: LCK % inhibition at 1 uM test concentration (Assay E)
Description: Assay E: LCK Biochemical Assay
The standard protocol below describes the standard HotSpot Kinase Assay run by the Reaction Biology Corporation as a service.
The substrate (poly(EY) (Glu:Tyr (4:1)) and the cofactors were prepared in fresh Reaction Buffer (20 mM Hepes (pH 7.5), 10 mM MgCl2, 2 mM MnCl2, 1 mM EGTA, 0.02% Brij35, 0.02 mg/ml BSA, 0.1 mM Na3VO4, 2 mM DTT, 2% DMSO). To the substrate solution was then added the enzyme (LCK; recombinant human full-length (Genbank Accession #NP_005347); C-terminal His-tagged, expressed in insect cells), and the resulting solution was then gently mixed. The test compounds were dissolved in DMSO and then delivered into the kinase reaction mixture using acoustic liquid handling technology (Echo550; nanoliter range). The reaction mixture was incubated for 20 min at RT and then treated with ^33P-ATP to initiate the reaction. After 2 hours of incubation at RT, kinase activity was detected using Reaction Biology Corporation's proprietary P81 filter-binding method.

[2] = biological target: full-length human BTK (Homo sapiens (Human), UniProt Q06187); assay: Assay A: microfluidic off-chip mobility shift assay against BTK enzyme; type: biochemical
[3] = biological target: BTK C481S (His-TEV-hsBTK(328-659)(C481S)) (Homo sapiens (Human), UniProt Q06187, C481S); assay: Assay B: microfluidic off-chip mobility shift assay against BTK C481S enzyme; type: biochemical; settings: BTK C481S mutant
How it was run: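 Substrate-to-phosphopeptide conversion quantified by microfluidic mobility shift with laser-induced fluorescence; IC50 and efficacy from log[inhibitor] vs. % activity.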

[4] = system: anti-IgM-induced expression of CD69 on CD19 positive cells (B cells) in human PBMCs; assay: Assay C: PBMC IC50 assay (anti-IgM-induced CD69 expression); type: cell-based; settings: anti-IgM stimulation
How it was run: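 Freshly isolated human PBMCs (2.5×10^5/well) pretreated 1 h with compound, then stimulated overnight (~16-18 h) with goat F(ab′)2 anti-human IgM. CD69 on CD19+ B cells measured by flow cytometry; IC50 from percentage CD69+ B cells versus concentration.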

Sequence of full-length human BTK (Q06187 whole entry): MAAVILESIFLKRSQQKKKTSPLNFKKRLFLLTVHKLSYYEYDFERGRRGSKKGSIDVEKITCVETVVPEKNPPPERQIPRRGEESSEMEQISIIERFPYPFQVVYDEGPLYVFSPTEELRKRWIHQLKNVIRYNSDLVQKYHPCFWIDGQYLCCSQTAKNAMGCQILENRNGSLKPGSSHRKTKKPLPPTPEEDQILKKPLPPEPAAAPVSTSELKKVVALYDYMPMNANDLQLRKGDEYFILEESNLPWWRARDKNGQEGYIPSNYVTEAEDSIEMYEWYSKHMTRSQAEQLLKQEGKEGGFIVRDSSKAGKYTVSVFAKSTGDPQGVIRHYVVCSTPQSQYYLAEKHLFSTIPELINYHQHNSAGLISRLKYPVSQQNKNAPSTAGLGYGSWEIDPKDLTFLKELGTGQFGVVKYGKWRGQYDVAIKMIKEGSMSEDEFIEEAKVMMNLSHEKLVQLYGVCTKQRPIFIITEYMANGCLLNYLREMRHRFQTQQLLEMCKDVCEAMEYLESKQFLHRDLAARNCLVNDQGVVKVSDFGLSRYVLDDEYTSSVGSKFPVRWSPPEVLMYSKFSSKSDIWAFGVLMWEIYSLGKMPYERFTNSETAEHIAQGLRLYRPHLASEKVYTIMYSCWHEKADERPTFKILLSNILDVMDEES
Sequence of BTK C481S (His-TEV-hsBTK(328-659)(C481S)) (Q06187 328-659 C481S): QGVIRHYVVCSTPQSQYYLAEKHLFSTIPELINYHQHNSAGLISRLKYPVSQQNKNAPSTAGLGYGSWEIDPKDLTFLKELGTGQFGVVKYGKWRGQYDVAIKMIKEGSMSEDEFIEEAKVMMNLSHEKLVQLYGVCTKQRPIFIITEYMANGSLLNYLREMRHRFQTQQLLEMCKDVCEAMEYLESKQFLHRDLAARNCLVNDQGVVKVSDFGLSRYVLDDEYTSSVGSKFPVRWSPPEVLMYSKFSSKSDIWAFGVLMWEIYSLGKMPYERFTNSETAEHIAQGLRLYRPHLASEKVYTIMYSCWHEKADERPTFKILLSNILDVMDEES
Sequence of LCK (P06239 whole entry): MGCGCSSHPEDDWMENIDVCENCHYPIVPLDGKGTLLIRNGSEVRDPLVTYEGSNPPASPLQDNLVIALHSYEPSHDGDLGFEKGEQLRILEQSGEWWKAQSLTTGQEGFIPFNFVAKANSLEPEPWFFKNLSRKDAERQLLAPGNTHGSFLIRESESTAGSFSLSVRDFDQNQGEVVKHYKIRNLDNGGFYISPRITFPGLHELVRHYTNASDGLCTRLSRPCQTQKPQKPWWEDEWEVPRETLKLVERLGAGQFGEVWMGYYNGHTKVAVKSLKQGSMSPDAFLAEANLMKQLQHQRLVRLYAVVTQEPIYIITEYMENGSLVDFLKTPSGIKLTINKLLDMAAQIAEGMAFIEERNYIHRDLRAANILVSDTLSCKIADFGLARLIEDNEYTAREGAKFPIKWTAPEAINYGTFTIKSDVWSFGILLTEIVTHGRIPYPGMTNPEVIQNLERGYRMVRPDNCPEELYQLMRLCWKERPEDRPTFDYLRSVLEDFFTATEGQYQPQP

Row | inhibition at 1 µM [1] [%] | IC50 [2] [nM] | IC50 [3] [nM] | SMILES | IC50 [4] [nM]
1 | 17 | < 100 | < 100 | Cn1cc(-c2nc3c(-c4ccc(CNC(=O)c5ccc(C(C)(C)C)cc5)c(C(F)(F)F)c4)ccnc3[nH]2)cn1 [Example 108, 4-tert-Butyl-N-{4-[2-(1-methyl-1H-pyrazol-4-yl)-3H-imidazo[4,5-b]pyridin-7-yl]-2-trifluoromethyl-benzyl}-benzamide] | < 100
2 | 15 | < 100 | < 100 | CC1CN(c2ccc(-c3nc4c(-c5ccc(CNC(=O)c6noc(C(C)(C)C)n6)c(F)c5)ccnc4[nH]3)nc2)CC(C)O1 (centres unmarked) [Example 81, 5-tert-Butyl-N-[(4-[2-[5-(2,6-dimethylmorpholin-4-yl)pyridin-2-yl]-3H-imidazo[4,5-b]pyridin-7-yl]-2-fluorophenyl)methyl]-1,2,4-oxadiazole-3-carboxamide] | < 100
